# Assay results taken from ChEMBL document CHEMBL1138445, “Design and synthesis of potent inhibitors of cholesteryl ester transfer protein (CETP) exploiting a 1,2,3,4-tetrahydroquinoline platform” (Bioorg Med Chem Lett, 2009).
# Molecular target: T1, Cholesteryl ester transfer protein (Homo sapiens, UniProt P11597)
# T1 sequence (P11597 whole entry): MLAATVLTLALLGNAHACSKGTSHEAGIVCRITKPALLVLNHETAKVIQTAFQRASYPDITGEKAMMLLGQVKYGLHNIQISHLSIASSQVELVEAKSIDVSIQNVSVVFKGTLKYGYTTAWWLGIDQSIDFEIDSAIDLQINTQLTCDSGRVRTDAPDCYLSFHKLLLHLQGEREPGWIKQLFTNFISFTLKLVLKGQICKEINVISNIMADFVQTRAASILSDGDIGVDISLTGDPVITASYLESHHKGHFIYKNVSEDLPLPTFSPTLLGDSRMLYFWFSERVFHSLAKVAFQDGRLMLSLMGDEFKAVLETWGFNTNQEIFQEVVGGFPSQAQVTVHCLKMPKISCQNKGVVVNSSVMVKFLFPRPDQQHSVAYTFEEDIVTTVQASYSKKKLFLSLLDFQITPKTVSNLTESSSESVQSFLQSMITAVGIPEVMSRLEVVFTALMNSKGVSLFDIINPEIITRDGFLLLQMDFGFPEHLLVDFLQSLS
# Experiment: Inhibition of human plasma derived CETP
# Assay type: cell-free
# Settings: not given
row,SMILES,IC50 [nM]
1,"OC(CN1c2cccc(-c3cccc(OC(F)(F)F)c3)c2CCC1c1cccc(OC(F)(F)C(F)F)c1)C(F)(F)F (single isomer, unassigned; 19) [listing 1 of 2 here]",33
2,"OC(CN1c2cccc(-c3cccc(OC(F)(F)F)c3)c2CCC1c1cccc(OC(F)(F)C(F)F)c1)C(F)(F)F (single isomer, unassigned; 20) [listing 1 of 2 here]",300
3,"N#Cc1cccc(-c2cccc3c2CCC(c2cccc(OC(F)(F)C(F)F)c2)N3CC(O)C(F)(F)F)c1 (single isomer, unassigned; diastereomer 1) [listing 1 of 2 here]",235
4,"OC(CN1c2cccc(-c3cccc(Cl)c3)c2CCC1c1cccc(OC(F)(F)C(F)F)c1)C(F)(F)F (single isomer, unassigned; diastereomer 1) [listing 1 of 2 here]",64
5,"COc1cccc(-c2cccc3c2CCC(c2cccc(OC(F)(F)C(F)F)c2)N3CC(O)C(F)(F)F)c1 (single isomer, unassigned; diastereomer 1) [listing 1 of 2 here]",126
6,"OC(CN1c2cccc(-c3cccc(F)c3)c2CCC1c1cccc(OC(F)(F)C(F)F)c1)C(F)(F)F (single isomer, unassigned; diastereomer 1) [listing 1 of 2 here]",117
7,"OC(CN1c2cccc(-c3cccc(Cl)c3Cl)c2CCC1c1cccc(OC(F)(F)C(F)F)c1)C(F)(F)F (single isomer, unassigned; diastereomer 2) [listing 1 of 2 here]",400
8,OC(CN1c2cccc(-c3cccc(OC(F)(F)F)c3)c2CCC1c1cccc(C(F)(F)F)c1)C(F)(F)F (stereo in doubt; 48) [listing 1 of 2 here],143
9,OC(CN1c2cccc(-c3cccc(OC(F)(F)F)c3)c2CCC1c1cccc(OC(F)(F)F)c1)C(F)(F)F (stereo in doubt; 52) [listing 1 of 2 here],125

# Molecular target: T2, Cholesteryl ester transfer protein (Homo sapiens) (UniProt P11597)
# T2 sequence (whole entry): T1 sequence (P11597 whole entry)
# Experiment: Inhibition of human plasma derived CETP relative to control
# Set-up: concentration or dose not given beside the values
# Settings: concentration not given here
row,SMILES,inhibition [%]
1,"CCC1CCc2c(-c3cccc(OC(F)(F)F)c3)cccc2N1CC(O)C(F)(F)F (single isomer, unassigned; diastereomer 1)",44
2,"CCc1cc(Oc2cccc3c2CCC(c2cccc(OC(F)(F)C(F)F)c2)N3CC(O)C(F)(F)F)ccc1Cl (single isomer, unassigned; diastereomer 1)",62
3,"COc1cccc(-c2cccc3c2CCC(c2cccc(OC(F)(F)C(F)F)c2)N3CC(O)C(F)(F)F)c1 (single isomer, unassigned; diastereomer 1) [listing 2 of 2 here]",68
4,"N#Cc1cccc(-c2cccc3c2CCC(c2cccc(OC(F)(F)C(F)F)c2)N3CC(O)C(F)(F)F)c1 (single isomer, unassigned; diastereomer 1) [listing 2 of 2 here]",85
5,"OC(CN1c2cccc(-c3cccc(C(F)(F)F)c3)c2CCC1c1cccc(OC(F)(F)C(F)F)c1)C(F)(F)F (single isomer, unassigned; diastereomer 1)",93
6,"OC(CN1c2cccc(-c3cccc(Cl)c3)c2CCC1c1cccc(OC(F)(F)C(F)F)c1)C(F)(F)F (single isomer, unassigned; diastereomer 1) [listing 2 of 2 here]",67
7,"OC(CN1c2cccc(-c3cccc(F)c3)c2CCC1c1cccc(OC(F)(F)C(F)F)c1)C(F)(F)F (single isomer, unassigned; diastereomer 1) [listing 2 of 2 here]",93
8,"OC(CN1c2cccc(-c3cccc(OC(F)(F)F)c3)c2CCC1C1CCCCC1)C(F)(F)F (single isomer, unassigned; diastereomer 1)",11
9,"OC(CN1c2cccc(-c3cccc(OC(F)(F)F)c3)c2CCC1c1ccc(OC(F)(F)C(F)F)cc1)C(F)(F)F (single isomer, unassigned; diastereomer 1)",5
10,"OC(CN1c2cccc(-c3cccc(OC(F)(F)F)c3)c2CCC1c1ccccc1)C(F)(F)F (single isomer, unassigned; diastereomer 1)",21
11,"OC(CN1c2cccc(-c3cccc(OC(F)(F)F)c3)c2CCC1c1cccs1)C(F)(F)F (single isomer, unassigned; diastereomer 1)",28
12,"CCC1CCc2c(-c3cccc(OC(F)(F)F)c3)cccc2N1CC(O)C(F)(F)F (single isomer, unassigned; diastereomer 2)",12
13,"CCc1cc(Oc2cccc3c2CCC(c2cccc(OC(F)(F)C(F)F)c2)N3CC(O)C(F)(F)F)ccc1Cl (single isomer, unassigned; diastereomer 2)",86
14,"COc1cccc(-c2cccc3c2CCC(c2cccc(OC(F)(F)C(F)F)c2)N3CC(O)C(F)(F)F)c1 (single isomer, unassigned; diastereomer 2)",38
15,"N#Cc1cccc(-c2cccc3c2CCC(c2cccc(OC(F)(F)C(F)F)c2)N3CC(O)C(F)(F)F)c1 (single isomer, unassigned; diastereomer 2)",21
16,"OC(CN1c2cccc(-c3cccc(C(F)(F)F)c3)c2CCC1c1cccc(OC(F)(F)C(F)F)c1)C(F)(F)F (single isomer, unassigned; diastereomer 2)",37
17,"OC(CN1c2cccc(-c3cccc(Cl)c3)c2CCC1c1cccc(OC(F)(F)C(F)F)c1)C(F)(F)F (single isomer, unassigned; diastereomer 2)",55
18,"OC(CN1c2cccc(-c3cccc(Cl)c3Cl)c2CCC1c1cccc(OC(F)(F)C(F)F)c1)C(F)(F)F (single isomer, unassigned; diastereomer 2) [listing 2 of 2 here]",86
19,"OC(CN1c2cccc(-c3cccc(F)c3)c2CCC1c1cccc(OC(F)(F)C(F)F)c1)C(F)(F)F (single isomer, unassigned; diastereomer 2)",52
20,"OC(CN1c2cccc(-c3cccc(OC(F)(F)F)c3)c2CCC1c1cccc(C(F)(F)F)c1)C(F)(F)F (single isomer, unassigned; diastereomer 2)",37
21,"OC(CN1c2cccc(-c3cccc(OC(F)(F)F)c3)c2CCC1c1ccccc1)C(F)(F)F (single isomer, unassigned; diastereomer 2)",6
22,"OC(CN1c2cccc(-c3cccc(OC(F)(F)F)c3)c2CCC1c1cccs1)C(F)(F)F (single isomer, unassigned; diastereomer 2)",12
23,"OC(CN1c2cccc(-c3cccc(OC(F)(F)F)c3)c2CCC1C1CCCCC1)C(F)(F)F (single isomer, unassigned; form 1)",2
24,"OC(CN1c2cccc(-c3cccc(OC(F)(F)F)c3)c2CCC1C1CCCCC1)C(F)(F)F (single isomer, unassigned; form 2)",13
25,OC(CN1c2cccc(-c3cccc(Cl)c3Cl)c2CCC1c1cccc(OC(F)(F)C(F)F)c1)C(F)(F)F (stereo in doubt; 17),67
26,OC(CN1c2cccc(-c3cccc(OC(F)(F)F)c3)c2CCC1c1ccc(OC(F)(F)C(F)F)cc1)C(F)(F)F (stereo in doubt; 41),14
27,OC(CN1c2cccc(-c3cccc(OC(F)(F)F)c3)c2CCC1c1cccc(C(F)(F)F)c1)C(F)(F)F (stereo in doubt; 48) [listing 2 of 2 here],50

# The next lines start with the values.
row,inhibition [%],SMILES
1,20,O[C@@H](CN1c2cccc(-c3cccc(OC(F)(F)F)c3)c2CC[C@H]1c1cccc(OC(F)(F)F)c1)C(F)(F)F
2,46,O[C@H](CN1c2cccc(-c3cccc(OC(F)(F)F)c3)c2CC[C@H]1c1cccc(OC(F)(F)F)c1)C(F)(F)F
3,100,"OC(CN1c2cccc(-c3cccc(OC(F)(F)F)c3)c2CCC1c1cccc(OC(F)(F)C(F)F)c1)C(F)(F)F (single isomer, unassigned; 19) [listing 2 of 2 here]"
4,86,"OC(CN1c2cccc(-c3cccc(OC(F)(F)F)c3)c2CCC1c1cccc(OC(F)(F)C(F)F)c1)C(F)(F)F (single isomer, unassigned; 20) [listing 2 of 2 here]"
5,9,"OC(CN1c2cccc(-c3cccc(OC(F)(F)F)c3)c2CCC1c1cccc(OC(F)(F)C(F)F)c1)C(F)(F)F (single isomer, unassigned; 38)"
6,0,"OC(CN1c2cccc(-c3cccc(OC(F)(F)F)c3)c2CCC1c1cccc(OC(F)(F)C(F)F)c1)C(F)(F)F (single isomer, unassigned; 39)"
7,13,"COCC(O)CN1c2cccc(-c3cccc(OC(F)(F)F)c3)c2CCC1c1cccc(OC(F)(F)F)c1 (single isomer, unassigned; diastereomer 1)"
8,56,"OC(CCl)CN1c2cccc(-c3cccc(OC(F)(F)F)c3)c2CCC1c1cccc(OC(F)(F)F)c1 (single isomer, unassigned; diastereomer 1)"
9,70,"OC(CF)CN1c2cccc(-c3cccc(OC(F)(F)F)c3)c2CCC1c1cccc(OC(F)(F)F)c1 (single isomer, unassigned; diastereomer 1)"
10,22,"CC(C)C(O)CN1c2cccc(-c3cccc(OC(F)(F)F)c3)c2CCC1c1cccc(OC(F)(F)F)c1 (single isomer, unassigned; diastereomer 2)"
11,0,"OC(CCl)CN1c2cccc(-c3cccc(OC(F)(F)F)c3)c2CCC1c1cccc(OC(F)(F)F)c1 (single isomer, unassigned; diastereomer 2)"
12,13,"OC(CF)CN1c2cccc(-c3cccc(OC(F)(F)F)c3)c2CCC1c1cccc(OC(F)(F)F)c1 (single isomer, unassigned; diastereomer 2)"
13,79,"CC(C)C(O)CN1c2cccc(-c3cccc(OC(F)(F)F)c3)c2CCC1c1cccc(OC(F)(F)F)c1 (single isomer, unassigned; form 1)"
14,0,"CC(C)C(O)CN1c2cccc(-c3cccc(OC(F)(F)F)c3)c2CCC1c1cccc(OC(F)(F)F)c1 (single isomer, unassigned; form 2)"
15,68,OC(CN1c2cccc(-c3cccc(OC(F)(F)F)c3)c2CCC1c1cccc(OC(F)(F)F)c1)C(F)(F)F (stereo in doubt; 52) [listing 2 of 2 here]
16,34,OC(CN1c2cccc(-c3cccc(OC(F)(F)F)c3)c2CCC1c1cccc(OC(F)(F)F)c1)C(F)(F)F (stereo in doubt; 53)
